How the values were obtained:
[1] = test system: Sprague Dawley rat pups; test: rodent model of VGB-induced IME (white matter injury and vacuolation); format: in vivo
Description: Model of VGB-induced IME. We adhere to the same protocol used by Ovation in recent studies. Sprague Dawley rat pups are treated from postnatal day 4-25 with VBG (50 mg/kg) or vehicle. This is administered by oral gavage to rats starting on PND 4. The single dose of 50 mg/kg was selected on the basis of the previous study in which it produced vacuolar lesions (24, 31). Rats are sacrificed at P25 and perfused with 4% paraformaldehyde. Brains are cryoprotected in sucrose for frozen sectioning.
Treatment groups. We use an n of 15 animals per group. Vehicle only, VGB alone, or VGB and bumetanide. The doses are daily.
Histological and immunocytochemical methods. Using our published protocols for quantification of white matter myelination (29) we perform MBP staining. 16 μm coronal cryostat sections (Leica CM3050 S) were collected on Superfrost Plus slides. […]
Data analysis. Fluorescence images are obtained on a Zeiss Axioscope, using a Spot digital camera and Advanced 4.5 software (Diagnostic Instruments). […] ImageJ software is used to quantitate MBP and O4 immunostaining as a proportion of the white matter capsule area (29). This methodology was validated with ImageJ software quantitation of total area of MBP immunostaining within each 2.4 mm2 field. […]

[2] = test system: Sprague Dawley rats; test: rat model of vigabatrin (VGB)-induced retinal toxicity, histopathologic analysis of retina; conditions: for VGB-induced retinal toxicity: 30 days
Description: We closely follow the methods of Duboc, et al (12) that recommend 30 days of treatment in juvenile rats to induce a lesion.
Model of VGB-induced toxicity. VGB is administered to young adult/juvenile Sprague Dawley rats between 6-7 weeks of age for a period of 30 days. VGB is dissolved in 0.9% NaCl at 100 mg/mL and injected intraperitoneally (i.p.) daily for 30 days at doses of 5 and 3 mg/day as described for treatment of animal epilepsy (26).
Treatment groups. We use of 15 animals per group. […] The doses are daily.
Histopathologic analysis of retina. As per established protocols eye cups are fixed overnight at 4° C. in 4% (wt/vol) paraformaldehyde in phosphate buffered saline PBS) 0.01M, pH 7.4. After cryoprotection in PBS containing successively 10, 20, and 30% sucrose at 4° C., the tissue is embedded in OCT (Labonord, Villeneuve d'Ascq, France). A preliminary analysis of general retinal morphology is performed on vertical sections (8-10 μm thickness) using hematoxylin and eosin. Additional sections are permeabilized for 5 minutes in PBS containing 0.1% Triton X-100 (Sigma, St. Louis, Mo.), rinsed, and incubated in PBS containing 1% bovine serum albumin (Eurobio, Les-Ulis, France), 0.1% Tween 20 (Sigma), and 0.1% sodium azide (Merck, Fontenay-Ss-Bois) for 2 hours at room temperature. The primary antibody is added to the solution and incubated for 2 hours at room temperature. Antibodies were anti-GFAP rabbit polyclonal antibody (1:400; DAKO), and antiactive caspase-3 rabbit polyclonal antibody (1:100; Cell Signaling Technology, Beverly, Mass.). […] Cone photoreceptors are stained with peanut agglutinin lectin coupled to Texas Red (PNA, 1:40; Sigma). […] The dye, diamidiphenyl-indole (DAPI), is added to any incubation solution. Sections are mounted with Fluorsave reagent (Calbiochem, San Diego, Calif.). PNA-stained cone inner/outer segments are counted on retinal sections in eight consecutive 300 μm-wide optical windows on each side of the optic nerve under the 40× objective. Areas with a disorganized outer nuclear layer are specifically excluded from this count. Vertical sections are stained with hematoxylin and eosin.
Tissue Preparation for Electron Microscopy. […] The tissue is rinsed in cacodylate 0.15M and postfixed in 1% osmium tetroxide (Electron MicroscopySciences) for 1 hour. After dehydration in ethanol, and propylene oxide, the tissue is embedded in epon. Semithin sections are stained with methylene blue and ultrathin sections (80 nm) contrasted with lead citrate and uranyl acetate.
Data analysis. For quantification we use the same outcome measures of retinal injury as Duboc et al and Jammoul et al (12, 25). Vertical sections along the dorsoventral axis are selected at the optic nerve. After DAPI nuclear staining, the lengths of disorganized retinal areas are measured; GFAP immunostaining is used for detection and quantification of retinal areas with reactive gliosis. The cone photoreceptor density is calculated after cone arrestin immunostaining to visualize the inner/outer segments of cone photoreceptors; areas with disorganized retinal layering were excluded.

[3] = molecular target: T1, NKCC1 (Rattus norvegicus, UniProt E9PTX9); conditions: bumetanide 0.1 mg/kg, rats, prior work; cited from earlier work
T1 construct: host or cells: rat brain, in vivo (endogenous protein)
T1 sequence (E9PTX9 1-1203): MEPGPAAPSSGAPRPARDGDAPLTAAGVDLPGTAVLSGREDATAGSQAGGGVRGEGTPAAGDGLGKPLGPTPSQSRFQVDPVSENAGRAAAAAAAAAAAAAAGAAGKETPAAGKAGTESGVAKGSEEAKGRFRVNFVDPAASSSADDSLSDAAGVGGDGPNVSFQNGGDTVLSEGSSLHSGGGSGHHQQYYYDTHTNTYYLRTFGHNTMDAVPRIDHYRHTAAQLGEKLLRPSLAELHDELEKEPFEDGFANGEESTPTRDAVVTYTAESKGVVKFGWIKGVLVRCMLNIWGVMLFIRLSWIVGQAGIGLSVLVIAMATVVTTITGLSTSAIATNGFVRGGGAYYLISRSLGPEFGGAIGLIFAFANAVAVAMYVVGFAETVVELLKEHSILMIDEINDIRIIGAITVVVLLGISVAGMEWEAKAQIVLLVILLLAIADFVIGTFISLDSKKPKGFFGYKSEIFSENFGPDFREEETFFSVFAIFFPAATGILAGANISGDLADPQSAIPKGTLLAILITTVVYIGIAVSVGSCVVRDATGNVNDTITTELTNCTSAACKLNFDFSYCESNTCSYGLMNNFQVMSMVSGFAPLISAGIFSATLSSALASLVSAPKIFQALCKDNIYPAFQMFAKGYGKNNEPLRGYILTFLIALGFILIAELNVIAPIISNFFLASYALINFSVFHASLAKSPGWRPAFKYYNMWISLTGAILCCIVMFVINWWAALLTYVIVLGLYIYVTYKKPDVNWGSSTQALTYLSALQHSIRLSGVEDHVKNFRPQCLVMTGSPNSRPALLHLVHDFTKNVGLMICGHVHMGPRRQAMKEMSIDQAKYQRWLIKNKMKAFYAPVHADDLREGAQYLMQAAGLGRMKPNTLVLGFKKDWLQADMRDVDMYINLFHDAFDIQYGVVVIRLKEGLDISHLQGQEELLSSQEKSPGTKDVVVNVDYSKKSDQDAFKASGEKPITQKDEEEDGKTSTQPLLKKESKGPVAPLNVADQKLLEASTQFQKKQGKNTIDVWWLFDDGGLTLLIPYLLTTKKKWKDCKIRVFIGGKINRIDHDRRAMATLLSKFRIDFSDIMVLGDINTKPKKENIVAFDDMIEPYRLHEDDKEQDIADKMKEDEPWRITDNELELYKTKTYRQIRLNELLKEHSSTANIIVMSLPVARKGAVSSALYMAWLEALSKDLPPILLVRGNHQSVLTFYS

[4] = FDA not approvable action 1998; cited from earlier work
[5] = bumetanide higher dose (0.2 mg/kg)

Row | SMILES | protection against VGB-induced white matter injury / IME ([1]; higher dose of bumetanide (0.2 mg/kg) with VGB 50 mg/kg/day) | protection against VGB-induced white matter injury / IME ([1]; lower dose of bumetanide (0.1 mg/kg/day i.p.) with VGB 50 mg/kg/day, PND 4-25) | VGB-induced retinal toxicity ([2]; bumetanide 0.2 mg/kg dose with VGB) | adverse effects of diuresis [2, 5] | effects on body weight or skin turgor [2, 5] | VGB-induced retinal toxicity ([2]; lower dose of bumetanide 0.1 mg/kg i.p. daily with VGB 5 mg/day) | suppression of NKCC1 in brain [3] | vigabatrin toxicity in retina (histopathology) ([2]; VGB i.p. daily for 30 days, juvenile rats) | incidence of permanent vision loss [4] [%]
1 | CCCCNc1cc(C(=O)O)cc(S(N)(=O)=O)c1Oc1ccccc1 [bumetanide, Bumetanide] | additional efficacy | shows protective efficacy | additional efficacy | no adverse effects of any modest diuresis | nor any significant effects on body weight or skin turgor | significant decrease in toxicity | effectively suppresses NKCC1 in brain | – | –
2 | C=CC(N)CCC(=O)O (stereo not drawn) [vigabatrin, gamma-vinyl-GABA] | – | – | – | – | – | – | – | photoreceptor injury/loss and vacuolization | 30

From patent publication US8822539B2, “Combination therapies: inhibitors of GABA transaminase and NKCC1” (Children's Medical Center Corporation, priority 2010, dated 2014)
